According to US20070082934A1, “Substituted 4-aryloxy and 4-arylsulfanyl-phenyl-2-aminothiazoles as inhibitors of cell proliferation” (priority 2003, published 2007):
“Also recorded” adds a separate entry of the source. Like-named read-outs stand apart in the source and are kept apart here.

Legend:
MCF7 cells = assay: Inhibition of breast cell proliferation, SRB assay, 48 hour incubation; type: cell-based, human; details: for inhibition at 100 µM: Homo sapiens
Description: MCF7 cells were treated with compounds or vehicle (DMSO). […] Percent inhibition of growth at 100 μM was determined and GI50 values were calculated from log-dose response curves as previously described ([…] et al., Cancer Res., 2003, 63:3211-3220).

MDA-MB-231/ATCC = assay: NCI anti-tumor screen, SRB assay, 48 hour exposure; type: cell-based, human; details: MDA-MB-231/ATCC breast cancer cell line
Description: (§1) Compounds were tested at the National Cancer Institute's Developmental Therapeutics Program, in duplicate, against 60 human tumor cell lines at a minimum of five concentrations at 10-fold dilutions: A 48 hour continuous drug exposure protocol was used, and a sulforhodamine B (SRB) protein assay was used to estimate cell viability or growth.
(§2) Upon completion of the synthesis, the thiazole compounds 17-24 and 27-30 were submitted to the NCI's antitumor screen (see Monks et al., J. Natl. Cancer Inst., 1991, 83:757b 766; Bray and Wickstrom, Biotechniques, 1996, 21:5:780-782) and the results against human breast cancer cell lines are shown in Table 2 as GI50 values.

NCI/ADR-RES = assay: NCI anti-tumor screen, SRB assay, 48 hour exposure; type: cell-based, human; details: adriamycin-resistant cell line
Description: as §1, §2

MDA-MB-435 = assay: NCI anti-tumor screen, SRB assay, 48 hour exposure; type: cell-based, human; details: estrogen-negative cell line MDA-MB-435
Description: as §1, §2

HS 578T = assay: NCI anti-tumor screen, SRB assay, 48 hour exposure; type: cell-based, human; details: estrogen-negative HS 578T cell line
Description: as §1, §2

T-47D = assay: NCI anti-tumor screen, SRB assay, 48 hour exposure; type: cell-based, human; details: estrogen-positive cell line T-47D
Description: as §1, §2

MCF7 = assay: NCI anti-tumor screen, SRB assay, 48 hour exposure; type: cell-based, human; details: MCF7 breast cancer cell line
Description: as §1, §2

BT-549 = assay: NCI anti-tumor screen, SRB assay, 48 hour exposure; type: cell-based, human; details: BT-549 breast cancer cell line
Description: as §1, §2

[1] = tested on: human breast cancer cell lines; assay: NCI anti-tumor screen, breast cancer cell line panel as a whole; type: cell-based; details: for selectivity among breast cancer cell lines: comparison of GI50 values across cell lines; for growth inhibition of human breast tumor cells, in words: estrogen-positive and negative breast cancer cell lines
Description: as §1, §2

[2] = tested on: 60 human tumor cell lines; assay: NCI anti-tumor screen, all NCI cell lines; type: cell-based; details: NCI cell lines other than breast (FIG. 3)
Description: FIG. 3 is a graphic representation of a GI50 comparison for compound 17 (4-[4′-(4-Chlorophenoxy)-phenyl]-thiazol-2-yl ammonium iodide) for all NCI cell lines. The ordinate represents growth inhibitor activity and the abscissa indicates the type of tumor as well as each cell line treated with compound 17. L=leukemia; NSCLC Non-small cell lung cancer; C=Colon; CNS=central nervous system; M=Melanoma; O=Ovarian; R=Renal; P=Prostate; B=Breast.
as §1

SMILES	inhibition at 100 µM (MCF7 cells)	GI50 (MDA-MB-231/ATCC; Homo sapiens)	GI50 (NCI/ADR-RES; Homo sapiens, NCI/ADR-RES)	GI50 (MDA-MB-435; Homo sapiens)	GI50 (HS 578T; Homo sapiens)	GI50 (T-47D; Homo sapiens, T47D)	GI50 (MCF7; Homo sapiens)	GI50 (BT-549; Homo sapiens)	% Inhibition of MCF7 cells at 100 μM (MCF7 cells)	selectivity among breast cancer cell lines [1]	melting point	also measured
Nc1nc(-c2ccc(Oc3ccccc3)cc2)cs1 [Compound 16, 4-(4′-Phenoxyphenyl)-thiazol-2-yl ammonium iodide]	81%	–	–	–	–	–	–	–	–	–	–	–
I.Nc1nc(-c2ccc(Oc3ccc(Cl)cc3)cc2)cs1 [Compound 17, 4-[4′-(4-Chlorophenoxy)-phenyl]-thiazol-2-yl ammonium iodide]	85%	> 100 µM	> 100 µM	> 100 µM	> 100 µM	0.917 µM	> 100 µM	> 100 µM	–	–	–	GI50 ([1]; Homo sapiens, T47D, all breast cancer cell lines except T-47D, read-out: GI50 in all cell lines except T-47D): > 100 µM; activity against other types of cancer [2]: not effective against other types of cancer
I.Nc1nc(-c2ccc(Oc3cccc(Cl)c3)cc2)cs1 [Compound 18, 4-[4-(3′-Chlorophenoxy)-phenyl]-thiazol-2-yl ammonium iodide]	–	–	–	–	–	–	–	–	100%	active only against estrogen receptor-negative breast cancer	–	GI50 (MDA-MB-231/ATCC): 4.8 µM; GI50 (NCI/ADR-RES): 13.2 µM; GI50 (MDA-MB-435): 2.1 µM; GI50 (HS 578T): 19.7 µM; GI50 (T-47D): 14 µM; GI50 (MCF7): 14.6 µM; GI50 (BT-549): 14.3 µM
I.Nc1nc(-c2ccc(Oc3ccccc3Cl)cc2)cs1 [Compound 19, 4-[4-(2′-Chlorophenoxy)-phenyl]-thiazol-2-yl ammonium iodide]	–	–	–	–	–	–	–	–	87%	–	–	GI50 (MDA-MB-231/ATCC): 10.5 µM; GI50 (NCI/ADR-RES): 25.8 µM; GI50 (MDA-MB-435): 14.8 µM; GI50 (T-47D): 16.4 µM; GI50 (MCF7): 27.4 µM; GI50 (BT-549): 12.8 µM
I.Nc1nc(-c2ccc(Oc3ccc(Cl)c(Cl)c3)cc2)cs1 [Compound 20, 4-[4′-(3,4-Dichlorophenoxy)-phenyl]-thiazol-2-yl ammonium iodide]	47%	2.29 µM	1.29 µM	0.759 µM	2 µM	20.9 µM	3.02 µM	1.91 µM	–	selectivity for the adriamycin-resistant cell line	202 to 205 °C	growth inhibition of human breast tumor cells, in words [1]: low micromolar growth inhibition of most human breast tumor cells; also recorded: low micromolar
COc1ccc(Oc2ccc(-c3csc(N)n3)cc2)cc1.I [Compound 21, 4-[4′-(4-Methoxyphenoxy)-phenyl]-thiazol-2-yl ammonium iodide]	24%	–	–	–	–	–	–	–	–	–	204 to 207 °C	–
Cc1ccc(Oc2ccc(-c3csc(N)n3)cc2)cc1.I [Compound 22, 4-[4′-(p-Toluoxy)phenyl]-thiazol-2-yl ammonium iodide]	98%	14.1 µM	18.2 µM	11.8 µM	22.7 µM	0.54 µM	17.2 µM	–	–	–	118 to 120 °C	–
I.Nc1nc(-c2ccc(Oc3ccc(-c4ccccc4)cc3)cc2)cs1 [Compound 23, 4-[4′-(Biphenyl-4-yloxy)-phenyl]-thiazol-2-yl ammonium iodide]	53%	12.6 µM	17.4 µM	18.6 µM	18.8 µM	3.91 µM	14.3 µM	10.4 µM	–	–	253 to 254 °C	–
I.Nc1nc(-c2ccc(Oc3ccc(Oc4ccccc4)cc3)cc2)cs1 [Compound 24, 4-[4′-(4-Phenoxy-phenoxy)-phenyl]-thiazol-2-yl ammonium iodide]	81%	12.6 µM	35.9 µM	22.7 µM	27.8 µM	4.9 µM	35.1 µM	16.1 µM	–	–	137 to 140 °C	–
CCOC(=O)c1cccc(Oc2ccc(-c3csc(N)n3)cc2)c1.I [Compound 25, 4-[4-(3′-Ethoxycarbonyl-phenoxy)-phenyl]-thiazol-2-yl ammonium iodide]	–	–	–	–	–	–	–	–	84%	–	–	–
I.Nc1nc(-c2ccc(Sc3ccccc3)cc2)cs1 [Compound 26, 4-(4′-Phenylsulfanyl-phenyl)-thiazol-2-yl ammonium iodide]	79%	–	–	–	–	–	–	–	–	–	129 to 132 °C	–
I.Nc1nc(-c2ccc(Sc3ccc(Cl)cc3)cc2)cs1 [Compound 27, 4-[4-(4′-Chloro-phenylsulfanyl)-phenyl]-thiazol-2-yl ammonium iodide]	–	–	–	–	–	–	–	–	89%	active only against estrogen receptor-negative breast cancer	–	GI50 (MDA-MB-231/ATCC): 12.4 µM; GI50 (NCI/ADR-RES): 17.5 µM; GI50 (MDA-MB-435): 1.49 µM; GI50 (HS 578T): 18.8 µM; GI50 (T-47D): 24.4 µM; GI50 (MCF7): 21.6 µM; GI50 (BT-549): 15.3 µM
I.Nc1nc(-c2ccc(Sc3ccc(Cl)c(Cl)c3)cc2)cs1 [Compound 28, 4-[4-(3′,4′-Dichloro-phenylsulfanyl)-phenyl]-thiazol-2-yl ammonium iodide]	–	–	–	–	–	–	–	–	54%	selectivity for the adriamycin-resistant cell line	–	GI50 (MDA-MB-231/ATCC): 3.73 µM; GI50 (NCI/ADR-RES): 3.37 µM; GI50 (MDA-MB-435): 1.11 µM; GI50 (T-47D): 2.79 µM; GI50 (MCF7): 5.68 µM; GI50 (BT-549): 5.95 µM; GI50 ([1]; all breast cancer cell lines except HS 578T, read-out: GI50 values in all cell lines except HS 578T): 1 to 5 µM; growth inhibition of human breast tumor cells, in words [1]: low micromolar growth inhibition of most human breast tumor cells
COc1ccc(Sc2ccc(-c3csc(N)n3)cc2)cc1.I [Compound 29, 4-[4-(4′-Methoxy-phenylsulfanyl)-phenyl]-thiazol-2-yl ammonium iodide]	–	–	–	–	–	–	–	–	11%	–	–	–
Cc1ccc(Sc2ccc(-c3csc(N)n3)cc2)cc1.I [Compound 30, 4-(4′p-Tolylsulfanyl-phenyl)-thiazol-2-yl ammonium iodide]	96%	> 100 µM	64.6 µM	1.4 µM	59.6 µM	68 µM	25.9 µM	25.7 µM	–	active only against estrogen receptor-negative breast cancer	182 to 185 °C	–
